Results: patent US12084451B2, “Compositions and methods for reducing tactile dysfunction, anxiety, and social impairment” (President and Fellows of Harvard College, priority 2018, dated 2024)
Values joined by “and” are separate entries in the source; they are usually repeats but may differ in a detail not shown here. Equal values may be shown once.

Tests used:
Format in all cases: cell-based
hGABAA α1β3γ2 [1] = biological target: T1, hGABAA α1β3γ2 (Homo sapiens, UniProt P14867+P18507+P28472); test: hGABAA IonFlux HT PAM Assay, α1β3γ2; settings: for EC50: Estimated EC50, positive modulation of EC20 GABA current; for Mean Maximal Effect (% of Control): normalized to baseline peak current induced by EC20 GABA (1 μM) for 2 seconds
T1 sequence (P14867 28-456): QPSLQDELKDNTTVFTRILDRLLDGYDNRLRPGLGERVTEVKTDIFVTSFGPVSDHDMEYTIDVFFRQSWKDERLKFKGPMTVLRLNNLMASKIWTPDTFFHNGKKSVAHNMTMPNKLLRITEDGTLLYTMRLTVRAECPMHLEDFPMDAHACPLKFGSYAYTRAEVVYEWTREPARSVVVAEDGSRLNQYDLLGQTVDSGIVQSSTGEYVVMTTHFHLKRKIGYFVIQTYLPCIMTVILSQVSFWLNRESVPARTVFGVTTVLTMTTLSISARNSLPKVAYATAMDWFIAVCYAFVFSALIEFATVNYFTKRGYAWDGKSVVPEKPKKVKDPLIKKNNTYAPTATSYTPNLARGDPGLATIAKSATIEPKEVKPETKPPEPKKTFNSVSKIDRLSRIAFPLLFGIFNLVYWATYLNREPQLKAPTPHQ
T1 sequence (P28472 26-473): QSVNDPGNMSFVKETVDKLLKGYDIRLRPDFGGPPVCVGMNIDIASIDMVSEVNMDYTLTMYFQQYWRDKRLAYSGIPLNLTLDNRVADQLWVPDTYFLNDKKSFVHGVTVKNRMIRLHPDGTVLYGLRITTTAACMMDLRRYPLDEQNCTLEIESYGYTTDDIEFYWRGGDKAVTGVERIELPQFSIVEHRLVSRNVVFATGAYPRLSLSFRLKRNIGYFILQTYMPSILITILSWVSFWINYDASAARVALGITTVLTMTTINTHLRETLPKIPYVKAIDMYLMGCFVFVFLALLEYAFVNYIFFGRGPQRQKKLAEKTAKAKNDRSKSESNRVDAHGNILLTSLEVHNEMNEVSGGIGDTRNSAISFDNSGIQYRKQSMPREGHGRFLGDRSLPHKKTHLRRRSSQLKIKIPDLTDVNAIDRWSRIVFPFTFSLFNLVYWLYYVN
T1 sequence (P18507 40-475): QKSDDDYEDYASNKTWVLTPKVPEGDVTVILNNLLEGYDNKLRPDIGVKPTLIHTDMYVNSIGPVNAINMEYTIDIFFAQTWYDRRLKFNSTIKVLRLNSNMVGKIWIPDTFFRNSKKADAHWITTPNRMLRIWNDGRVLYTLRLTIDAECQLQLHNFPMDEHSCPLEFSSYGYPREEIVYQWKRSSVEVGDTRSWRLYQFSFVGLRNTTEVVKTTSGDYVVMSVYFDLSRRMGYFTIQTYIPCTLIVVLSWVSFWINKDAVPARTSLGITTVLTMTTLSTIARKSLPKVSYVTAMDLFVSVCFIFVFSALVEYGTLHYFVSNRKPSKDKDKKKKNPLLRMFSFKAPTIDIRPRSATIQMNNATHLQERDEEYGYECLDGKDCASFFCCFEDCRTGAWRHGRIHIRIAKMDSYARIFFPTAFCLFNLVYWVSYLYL
Source text: (§1) Ligand-gated ion channels targeted were hGABAA α1β3γ2 and hGABAA α2β3γ2.
(§2) Electrophysiological assays conducted to profile nine (9) compounds for activities on the on channel targets listed above for Positive Allosteric Modulator (PAM) activities using the IonFlux HT electrophysiological platform.
The parameters measured are described in the Data Analysis section.
(§3) All wells included a final DMSO concentration of 0.33% including all control wells.
(§4) All recordings were obtained from a holding potential of −60 mV. The compound addition sequence that was used for all additions was the same for all assays. […] The process was repeated with the next ascending concentration of test compound (FIG. 1).
(§5) All data were first exported to an Excel compatible data file and then analyzed using Graph Pad Prism software.

hGABAA α2β3γ2 = hGABAA α2β3γ2 (Homo sapiens, UniProt P18507+P28472+P47869); test: hGABAA IonFlux HT PAM Assay, α2β3γ2; settings: for EC50: Estimated EC50, positive modulation of EC20 GABA current; for Mean Maximal Effect (% of Control): normalized to baseline peak current induced by EC20 GABA (0.8 μM) for 2 seconds
Sequence of hGABAA α2β3γ2 (P47869 29-451): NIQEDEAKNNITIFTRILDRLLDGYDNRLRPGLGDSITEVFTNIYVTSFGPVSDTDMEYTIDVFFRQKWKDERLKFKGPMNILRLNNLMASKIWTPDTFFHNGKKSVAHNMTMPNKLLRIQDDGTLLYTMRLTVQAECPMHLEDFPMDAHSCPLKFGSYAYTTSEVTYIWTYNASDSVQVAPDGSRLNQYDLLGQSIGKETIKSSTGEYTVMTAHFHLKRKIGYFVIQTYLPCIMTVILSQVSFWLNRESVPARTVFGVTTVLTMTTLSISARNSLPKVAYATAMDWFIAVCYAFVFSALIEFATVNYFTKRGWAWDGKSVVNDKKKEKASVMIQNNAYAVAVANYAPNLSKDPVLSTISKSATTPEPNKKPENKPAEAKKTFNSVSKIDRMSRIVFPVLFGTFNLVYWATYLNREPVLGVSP
Sequence of hGABAA α2β3γ2 (P28472 26-473): as the sequence (P28472 26-473) above
Sequence of hGABAA α2β3γ2 (P18507 40-475): as the sequence (P18507 40-475) above
Source text: as §1, §2
The parameters measured are described in the Data Analysis section. […] Open circles represent data that has been excluded from the curve fitting. Where no curve fit was possible, n/c (not calculable) is listed.
as §3, §4, §5

hGABAA α1β3γ2 [2] = biological target: T1, hGABAA α1β3γ2; test: hGABAA α1β3γ2 IonFlux HT Agonist Assay; set-up: activation of hGABAA α1β3γ2 ion channel currents / activation: dose or concentration left out as unconfirmed
Procedure: Ligand-gated ion channel targets were hGABAA α2β3γ2 and hGABAA α1β3γ2. Electrophysiological assays conducted to profile two compounds for agonist activities on hGABAA α2β3γ2 and seven compounds for agonist activities on hGABAA α1β3γ2 using the IonFlux HT electrophysiological platform.
The parameters measured are described in the Data Analysis section. […] Note: The test compounds was applied over two (2) ‘experimental patterns’ in increasing concentrations.
The supplied compound was prepared in DMSO to concentrations that were 300× the final assay concentrations. Aliquots were taken out and diluted 300× into external buffer to give the final assay concentration. At wells included a final DMSO concentration of 0.33% including all control wets.
All recordings were obtained from a holding potential of −60 mV. The compound addition sequence that was used for all additions was the same for all assays. […] Each test concentration of compound was applied for 2 seconds followed by 60 seconds wash. The process was repeated with the next ascending concentration of test compound. The test compounds were applied over two (2) ‘experimental patterns’ in increasing concentrations (FIG. 11).
AM data were first exported to an Excel compatible data file and then analyzed using Graph Pad Prism software.

[3] = read-out: Normalized Percentage Activation Mean

Structure (SMILES): CCN(CCN(C)C)C(=O)OC1c2nccnc2C(=O)N1c1ccc(Cl)cn1 (centres unmarked) [Compound 4]
- EC50 (hGABAA α1β3γ2 [1]): 2.47 µM
- Mean Maximal Effect (% of Control) (hGABAA α1β3γ2 [1]): 170 % of Control
- EC50 (hGABAA α2β3γ2): 5.8 µM
- Mean Maximal Effect (% of Control) (hGABAA α2β3γ2): 126 % of Control
- EC50 (hGABAA α1β3γ2 [2]): > 1000 µM
- activation of hGABAA α1β3γ2 ion channel currents (hGABAA α1β3γ2 [2]): did not activate
- activation (hGABAA α1β3γ2 [2]; [3]): 4.45%
- activation at 0.3 µM (hGABAA α1β3γ2 [2]; [3]): 5.26%
- activation at 1 µM (hGABAA α1β3γ2 [2]; [3]): 5.13%
- activation at 3 µM (hGABAA α1β3γ2 [2]; [3]): 5.89%
- activation at 10 µM (hGABAA α1β3γ2 [2]; [3]): 5.68%
- activation at 30 µM (hGABAA α1β3γ2 [2]; [3]): 6.45%
- activation at 100 µM (hGABAA α1β3γ2 [2]; [3]): 5.97%
- activation at 300 µM (hGABAA α1β3γ2 [2]; [3]): 5.85%

Structure (SMILES): CN1C(=O)CN=C(c2ccccc2)c2cc(Cl)ccc21 [Diazepam]
- (%) Control mean (hGABAA α1β3γ2 [1]; 0.003 μM + EC20 GABA): 124.0 % Control and 122.6 % Control and 125.3 % Control
- (%) Control n1 (hGABAA α1β3γ2 [1]; 0.003 μM + EC20 GABA): 123.6 % Control and 125.3 % Control and 121.6 % Control
- (%) Control n2 (hGABAA α1β3γ2 [1]; 0.003 μM + EC20 GABA): 124.3 % Control and 119.9 % Control and 129.0 % Control
- (%) Control mean (hGABAA α1β3γ2 [1]; 0.01 μM + EC20 GABA): 148.4 % Control and 139.6 % Control and 149.7 % Control
- (%) Control n1 (hGABAA α1β3γ2 [1]; 0.01 μM + EC20 GABA): 149.5 % Control and 141.4 % Control and 137.2 % Control
- (%) Control n2 (hGABAA α1β3γ2 [1]; 0.01 μM + EC20 GABA): 147.2 % Control and 137.8 % Control and 162.2 % Control
- (%) Control mean (hGABAA α1β3γ2 [1]; 0.03 μM + EC20 GABA): 186.5 % Control and 171.8 % Control and 193.2 % Control
- (%) Control n1 (hGABAA α1β3γ2 [1]; 0.03 μM + EC20 GABA): 182.7 % Control and 182.4 % Control and 169.0 % Control
- (%) Control n2 (hGABAA α1β3γ2 [1]; 0.03 μM + EC20 GABA): 190.3 % Control and 161.2 % Control and 217.4 % Control
- (%) Control mean (hGABAA α1β3γ2 [1]; 0.1 μM + EC20 GABA): 250.0 % Control and 234.6 % Control and 223.1 % Control
- (%) Control n1 (hGABAA α1β3γ2 [1]; 0.1 μM + EC20 GABA): 230.0 % Control and 227.4 % Control and 232.1 % Control
- (%) Control n2 (hGABAA α1β3γ2 [1]; 0.1 μM + EC20 GABA): 269.9 % Control and 241.8 % Control and 214.1 % Control
- (%) Control mean (hGABAA α1β3γ2 [1]; 0.3 μM + EC20 GABA): 298.9 % Control and 284.3 % Control and 269.3 % Control
- (%) Control n1 (hGABAA α1β3γ2 [1]; 0.3 μM + EC20 GABA): 265.9 % Control and 275.1 % Control and 262.8 % Control
- (%) Control n2 (hGABAA α1β3γ2 [1]; 0.3 μM + EC20 GABA): 331.8 % Control and 293.6 % Control and 275.8 % Control
- (%) Control mean (hGABAA α1β3γ2 [1]; 1 μM + EC20 GABA): 317.0 % Control and 310.4 % Control and 314.3 % Control
- (%) Control n1 (hGABAA α1β3γ2 [1]; 1 μM + EC20 GABA): 284.9 % Control and 296.1 % Control and 284.8 % Control
- (%) Control n2 (hGABAA α1β3γ2 [1]; 1 μM + EC20 GABA): 349.1 % Control and 324.7 % Control and 343.8 % Control
- Mean Maximal Effect (% of Control) (hGABAA α1β3γ2 [1]): 317 % of Control and 310 % of Control and 314 % of Control
- (%) Control mean (hGABAA α2β3γ2; 0.003 μM + EC20 GABA): 116.0 % Control and 114.8 % Control and 100.4 % Control
- (%) Control n1 (hGABAA α2β3γ2; 0.003 μM + EC20 GABA): 113.8 % Control and 112.4 % Control and 113.2 % Control
- (%) Control n2 (hGABAA α2β3γ2; 0.003 μM + EC20 GABA): 118.1 % Control and 117.2 % Control and 87.7 % Control
- (%) Control mean (hGABAA α2β3γ2; 0.01 μM + EC20 GABA): 135.3 % Control and 124.0 % Control and 118.1 % Control
- (%) Control n1 (hGABAA α2β3γ2; 0.01 μM + EC20 GABA): 131.2 % Control and 123.3 % Control and 122.4 % Control
- (%) Control n2 (hGABAA α2β3γ2; 0.01 μM + EC20 GABA): 139.3 % Control and 124.7 % Control and 113.8 % Control
- (%) Control mean (hGABAA α2β3γ2; 0.03 μM + EC20 GABA): 162.5 % Control and 158.2 % Control and 142.3 % Control
- (%) Control n1 (hGABAA α2β3γ2; 0.03 μM + EC20 GABA): 155.2 % Control and 156.2 % Control and 150.5 % Control
- (%) Control n2 (hGABAA α2β3γ2; 0.03 μM + EC20 GABA): 169.9 % Control and 160.3 % Control and 134.2 % Control
- (%) Control mean (hGABAA α2β3γ2; 0.1 μM + EC20 GABA): 252.4 % Control and 255.8 % Control and 206.0 % Control
- (%) Control n1 (hGABAA α2β3γ2; 0.1 μM + EC20 GABA): 261.1 % Control and 261.6 % Control and 216.8 % Control
- (%) Control n2 (hGABAA α2β3γ2; 0.1 μM + EC20 GABA): 243.8 % Control and 249.9 % Control and 195.1 % Control
- (%) Control mean (hGABAA α2β3γ2; 0.3 μM + EC20 GABA): 253.5 % Control and 261.6 % Control and 214.1 % Control
- (%) Control n1 (hGABAA α2β3γ2; 0.3 μM + EC20 GABA): 267.8 % Control and 260.9 % Control and 230.4 % Control
- (%) Control n2 (hGABAA α2β3γ2; 0.3 μM + EC20 GABA): 239.3 % Control and 262.3 % Control and 197.8 % Control
- (%) Control mean (hGABAA α2β3γ2; 1 μM + EC20 GABA): 262.3 % Control and 269.3 % Control and 224.3 % Control
- (%) Control n1 (hGABAA α2β3γ2; 1 μM + EC20 GABA): 274.0 % Control and 285.9 % Control and 235.0 % Control
- (%) Control n2 (hGABAA α2β3γ2; 1 μM + EC20 GABA): 250.6 % Control and 252.8 % Control and 213.6 % Control
- Mean Maximal Effect (% of Control) (hGABAA α2β3γ2): 262 % of Control and 269 % of Control and 224 % of Control

Structure (SMILES): CN1CCN(C(=O)O[C@H]2c3nccnc3C(=O)N2c2ccc(Cl)cn2)CC1 [Eszopiclone]
- (%) Control mean (hGABAA α1β3γ2 [1]; 0.001 μM + EC20 GABA): 105.7 % Control
- (%) Control n1 (hGABAA α1β3γ2 [1]; 0.001 μM + EC20 GABA): 97.8 % Control
- (%) Control n2 (hGABAA α1β3γ2 [1]; 0.001 μM + EC20 GABA): 113.5 % Control
- (%) Control mean (hGABAA α1β3γ2 [1]; 0.01 μM + EC20 GABA): 140.3 % Control
- (%) Control n1 (hGABAA α1β3γ2 [1]; 0.01 μM + EC20 GABA): 132.0 % Control
- (%) Control n2 (hGABAA α1β3γ2 [1]; 0.01 μM + EC20 GABA): 148.7 % Control
- (%) Control mean (hGABAA α1β3γ2 [1]; 0.1 μM + EC20 GABA): 252.4 % Control
- (%) Control n1 (hGABAA α1β3γ2 [1]; 0.1 μM + EC20 GABA): 242.3 % Control
- (%) Control n2 (hGABAA α1β3γ2 [1]; 0.1 μM + EC20 GABA): 262.5 % Control
- (%) Control mean (hGABAA α1β3γ2 [1]; 1 μM + EC20 GABA): 247.6 % Control
- (%) Control n1 (hGABAA α1β3γ2 [1]; 1 μM + EC20 GABA): 267.4 % Control
- (%) Control n2 (hGABAA α1β3γ2 [1]; 1 μM + EC20 GABA): 227.7 % Control
- (%) Control mean (hGABAA α1β3γ2 [1]; 10 μM + EC20 GABA): 252.4 % Control
- (%) Control n1 (hGABAA α1β3γ2 [1]; 10 μM + EC20 GABA): 262.3 % Control
- (%) Control n2 (hGABAA α1β3γ2 [1]; 10 μM + EC20 GABA): 242.5 % Control
- (%) Control mean (hGABAA α1β3γ2 [1]; 100 μM + EC20 GABA): 234.7 % Control
- (%) Control n1 (hGABAA α1β3γ2 [1]; 100 μM + EC20 GABA): 258.5 % Control
- (%) Control n2 (hGABAA α1β3γ2 [1]; 100 μM + EC20 GABA): 210.8 % Control
- EC50 (hGABAA α1β3γ2 [1]): 0.012 µM
- Mean Maximal Effect (% of Control) (hGABAA α1β3γ2 [1]): 252 % of Control
- EC50 (hGABAA α2β3γ2): 0.164 µM
- Mean Maximal Effect (% of Control) (hGABAA α2β3γ2): 213 % of Control
